Assay results from patent US5770382A, “Tricyclic retinoids, methods for their production and use” (Ligand Pharmaceuticals, Inc., priority 1995, dated 1998).
pEC50: −log10 of the molar value. Entries after “also recorded” stand apart in the source; their conditions may differ.

Tests used:
[1] = test system: RARs; experiment: Co-transfection assay, summary for the RARs; assay type: cell-based, human
Method: (§1) Utilizing the "cis-trans" or "co-transfection" assay described by Evans et al., Science, 240:889-95 (May 13, 1988), the disclosure of which is herein incorporated by reference, the retinoid compounds of the present invention were tested and found to have strong, specific activity as either selective RAR agonists, selective RXR agonists, or as pan-agonist activators of both RAR and RXR receptors. This assay is described in further detail in U.S. Pat. Nos. 4,981,784 and 5,071,773, the disclosures of which are incorporated herein by reference.
(§2) The co-transfection assay provides a method for identifying functional agonists which mimic, or antagonists which inhibit, the effect of native hormones, and quantifying their activity for responsive IR proteins. In this regard, the co-transfection assay mimics an in vivo system in the laboratory. Importantly, activity in the co-transfection assay correlates very well with known in vivo activity, such that the co-transfection assay functions as a qualitative and quantitative predictor of a tested compounds Ln vivo pharmacology. See, e.g., T. Berger et al. 41 J. Steroid Biochem. Molec. Biol. 733 (1992), the disclosure of which is herein incorporated by reference.
(§3) In the co-transfection assay, a cloned cDNA for an IR (e.g., human RARα, RARβ, RXRγ) under the control of a constitutive promoter (e.g., the SV 40 promoter) is introduced by transfection (a procedure to induce cells to take up foreign genes) into a background cell substantially devoid of endogenous IRs. This introduced gene directs the recipient cells to make the IR protein of interest. A second gene is also introduced (co-transfected) into the same cells in conjunction with the IR gene. This second gene, comprising the cDNA for a reporter protein, such as firefly luciferase (LUC), controlled by an appropriate hormone responsive promoter containing a hormone response element (HRE). This reporter plasmid functions as a reporter for the transcription-modulating activity of the target IR. Thus, the reporter acts as a surrogate for the products (mRNA then protein) normally expressed by a gene under control of the target receptor and its native hormone.
The co-transfection assay can detect small molecule agonists or antagonists of target IRs. Exposing the transfected cells to an agonist ligand compound increases reporter activity in the transfected cells. This activity can be conveniently measured, e.g., by increasing luciferase production, which reflects compound-dependent, IR-mediated increases in reporter transcription. […] . Increasing concentrations of a suspected antagonist will decrease the reporter signal (e.g., luciferase production). The co-transfection assay is therefore useful to detect both agonists and antagonists of specific IRs. […]

[2] = test system: RAR and RXR receptors; experiment: Co-transfection assay, summary for RARs and RXRs; assay type: cell-based; details: for potency profile in comparison to 9-cis retinoic acid (in words): versus 9-cis
Method: as §1, §2, §3
The co-transfection assay can detect small molecule agonists or antagonists of target IRs. Exposing the transfected cells to an agonist ligand compound increases reporter activity in the transfected cells. This activity can be conveniently measured, e.g., by increasing luciferase production, which reflects compound-dependent, IR-mediated increases in reporter transcription. […] . Increasing concentrations of a suspected antagonist will decrease the reporter signal (e.g., luciferase production). The co-transfection assay is therefore useful to detect both agonists and antagonists of specific IRs. Furthermore, it determines not only whether a compound interacts with a particular IR, but whether this interaction mimics (agonizes) or blocks (antagonizes) the effects of the native regulatory molecules on target gene expression, as well as the specificity and strength of this interaction.
To determine RAR and/or RXR agonist activity of the compounds of the present invention, the CV-1 cells were transiently transfected by calcium phosphate coprecipitation according to the procedure of Berger et al., 41 J.Steroid Biochem. Mol. Biol., 733 (1992) with the following receptor expressing plasmids: pRShRARα: Giguere et al., 330 Nature, 624 (1987); pRShRARβ and pRShRARγ, Ishikawa et al., 4 Mol. Endocrin., 837 (1990); pRShRXRα, Mangelsdorf et al., 345 Nature, 224 (1990); and pRSmRXRβ and pRSmRXRγ, Mangelsdorf et al., 6 Genes & Devel., 329 (1992), the disclosures of which are herein incorporated by reference.

[3] = target: T1, RXRα (Homo sapiens, UniProt P19793); experiment: Co-transfection assay, RXRα agonist activity; assay type: cell-based; details: CV-1 cells, 40 hours; read-out: RXRα Pot (potency, EC50)
T1 construct: expressed in transfected cells; host or cells: CV-1 (African green monkey kidney fibroblasts)
T1 sequence (P19793 1-462): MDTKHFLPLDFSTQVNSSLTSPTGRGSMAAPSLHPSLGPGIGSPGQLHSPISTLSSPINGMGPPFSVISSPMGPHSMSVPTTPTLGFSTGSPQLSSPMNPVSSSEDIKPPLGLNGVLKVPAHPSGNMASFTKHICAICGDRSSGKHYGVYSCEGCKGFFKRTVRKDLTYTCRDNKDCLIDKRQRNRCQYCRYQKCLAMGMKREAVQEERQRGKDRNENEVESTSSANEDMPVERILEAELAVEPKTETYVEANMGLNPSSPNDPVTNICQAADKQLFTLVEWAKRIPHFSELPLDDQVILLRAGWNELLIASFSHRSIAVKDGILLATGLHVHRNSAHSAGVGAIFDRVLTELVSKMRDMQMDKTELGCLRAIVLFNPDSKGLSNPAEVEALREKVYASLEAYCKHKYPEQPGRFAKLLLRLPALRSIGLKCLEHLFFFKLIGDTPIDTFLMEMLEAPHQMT

[4] = test system: ornithine decarboxylase (ODC); details: literature; cited from earlier work

agonist type on RAR and RXR receptors (in words) [2] | potency profile in comparison to 9-cis retinoic acid (in words) [2] | SMILES | RAR activity / selectivity (in words) [1] | other results
pan-agonist | superior potency profiles | CC(/C=C/C=C1/CCOc2cc3c(cc21)C(C)(C)CCC3(C)C)=C\C(=O)O [Compound 144b] | extremely potent RAR active | –
pan-agonist | superior potency profiles | CC(/C=C/C=C1/CCCc2cc3c(cc21)C(C)(C)CCC3(C)C)=C\C(=O)O [Compound 101b, (2E,4E)-3-Methyl-6-[(Z)-3,4,5,6,7,8-hexahydro-5,5,8,8-tetramethyl-2H-anthracen-1-ylidene]hexa-2,4-dienoic acid] | extremely potent RAR active | –
pan-agonist | superior potency profiles | CC(/C=C/CC1CCCc2cc3c(cc21)C(C)(C)CCC3(C)C)=C\C(=O)O (racemic) [Compound 124b, (2E,4E)-3-Methyl-6-(1,2,3,4,5,6,7,8-octahydro-5,5,8,8-tetramethylanthracen-1-yl)hexa-2,4-dienoic acid] | – | –

The next lines start with the compound.

SMILES | agonist type on RAR and RXR receptors (in words) [2] | potency profile in comparison to 9-cis retinoic acid (in words) [2] | RAR activity / selectivity (in words) [1] | other results
CCN1CC\C(=C/C=C/C(C)=C/C(=O)O)c2cc3c(cc21)C(C)(C)CCC3(C)C [Compound 147b, (2E,4E)-3-methyl-6-[(E)1-ethyl-6,6,9,9-tetramethyl-2,3,6,7,8,9-hexahydro-1H-benzo[g]quinolin-4-ylidene]hexa-2,4-dienoic acid] | – | – | – | pEC50 [3]: < 5.00
CC1=C(/C=C/C(C)=C/C=C/C(C)=C/C(=O)O)C(C)(C)CCC1 [retinoic acid] | – | – | – | inhibition of TPA induction of ODC (in words) [4]: inhibits this induction of ODC by TPA
CC(/C=C/C=C1\CCOc2cc3c(cc21)C(C)(C)CCC3(C)C)=C\C(=O)O [Compound 119b, (2E,4E)-3-Methyl-6-[(E)-2,3,6,7,8,9-hexahydro-6,6,9,9-tetramethyl-benzo[g]chromen-4-ylidene]hexa-2,4-dienoic acid] | – | – | extremely potent RAR active; also recorded: RAR selective | –
CC(/C=C/C=C1\CCCc2cc3c(cc21)C(C)(C)CCC3(C)C)=C\C(=O)O [Compound 109b, (2E,4E)-3-Methyl-6-[(E)-3,4,5,6,7,8-hexahydro-5,5,8,8-tetramethyl-2H-anthracen-1-ylidene]hexa-2,4-dienoic acid] | – | – | extremely potent RAR active; also recorded: RAR selective | –
